Test results reported in patent US11142505B2, “Compositions for APP-selective BACE inhibition and uses therefor” (The Regents of the University of California, priority 2015, dated 2021).
pIC50: −log10 of the molar value. Where “and” joins values, the source holds several entries; their conditions need not be identical. Equal values may be shown once. Where a name gives a salt, the structure may show the parent alone. Read-outs that look alike come from different tables or passages of the source.

Columns and labels:
[1] = system: CHO-7W cells that were stably transfected with human APP (wildtype); experiment: Secondary cell-based test of APP processing (sAPPalpha, sAPPbeta, Abeta 1-42); details: for Aβ1-42 peptide formation, in words: FIG. 1C, FIG. 5B; for sAPP (α/β) / sAPPalpha / sAPPbeta / sAPPα/Aβ / Abeta 1-42: Secondary (1st test, n = 3); for sAPP (α/β) / sAPPα/Aβ: ratio; for sAPPbeta / Abeta 1-42: ↓ decrease
Text: Cellular Assays: Numerous cell-based assays can be used to evaluate the activity of agent(s) of interest on relative alpha-secretase activity to beta-secretase activity and/or processing of APP to release amyloidogenic versus non-amyloidogenic oligomers.
Relative activity of the alpha-secretase to the beta-secretase can be measured by analysis of one or more cleavage products of the APP substrate. For example, inhibition of beta-secretase activity against the substrate APP would be expected to decrease release of specific beta-secretase induced APP cleavage products such as Aβ (e.g., Aβ40 or Aβ42), sAPPβ and APPneo. Promotion or enhancement of alpha-secretase activity against the substrate APP would be expected to increase release of specific alpha-secretase induced APP cleavage products such as sAPPα and p3 peptide.
In such assays, for example, the cells expressing APP, alpha-secretase and/or beta-secretase are incubated in a culture medium under conditions suitable for alpha-secretase and/or beta-secretase enzymatic activity at its cleavage site on the APP substrate. On exposure of the cells to the agent(s), the amount of Aβ released into the medium and/or the amount of CTF99 fragments of APP in the cell lysates is reduced as compared with the control. The cleavage products of APP can be analyzed, for example, by immune reactions with specific antibodies, as discussed above.

[2] = pharmacokinetics, plasma and brain levels; type: in vivo
Text: As is readily apparent, not all compounds were equally able to cross the blood brain barrier, but most compounds did reach pharmacologically meaningful levels given their low IC50 values. FIG. 5A provides a further exemplary compound (FAH65) and FIG. 5B depicts dose response data for Aβ1-42 production in a cell based system.. Further shown are effects observed with regard to Aβ1-42 production, sAPPβ and sAPPα formation. […] Here, data are presented for oral and subcutaneous administration (SQ) at dosages of 10- and 30 mg/kg. […] Once more, it should be noted that these exemplary compounds are preferential towards APP in BACE inhibition as can be taken from the data for Aβ1-42, sAPPβ, and sAPPα formation.

solubility (Sol) = type: physicochemical; details: Table 3
BACE1 = BACE1 (Homo sapiens (Human), UniProt P56817); experiment: in vitro BACE inhibition assay (Primary BACE1 IC50); type: biochemical; details: for BACE activity / IC50 in the BACE assay, in words: FIG. 1B, FIG. 2B
Chain of BACE1 (P56817 46-501): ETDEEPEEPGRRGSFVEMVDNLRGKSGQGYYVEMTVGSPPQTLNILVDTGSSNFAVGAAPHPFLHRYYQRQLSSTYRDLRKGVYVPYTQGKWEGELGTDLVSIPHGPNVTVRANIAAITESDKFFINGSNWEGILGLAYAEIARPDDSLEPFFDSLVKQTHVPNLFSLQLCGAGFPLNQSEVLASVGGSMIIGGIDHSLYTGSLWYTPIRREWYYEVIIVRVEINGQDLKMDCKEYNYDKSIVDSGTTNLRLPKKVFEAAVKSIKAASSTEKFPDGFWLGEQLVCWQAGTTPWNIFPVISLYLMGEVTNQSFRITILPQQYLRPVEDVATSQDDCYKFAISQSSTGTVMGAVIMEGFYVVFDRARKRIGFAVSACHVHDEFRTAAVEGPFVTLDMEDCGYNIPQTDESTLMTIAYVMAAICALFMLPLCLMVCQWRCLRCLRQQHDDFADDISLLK
Text: ABBI Assay: APP Binding BACE Inhibitor (ABBI) activity of any of the compounds described herein can readily be verified using, for example, assays described herein. […] In one illustrative embodiment, an MBP-C125 APP695 wt fusion protein can be used as one of the substrates and the second substrate can be the commercially available P5-P5′ fluorescence substrate.

[3] = Table 4, several values in a cell are repeat determinations, read-out: BACE1 IC50
[4] = one cell spans the readout columns

Structure (SMILES): Cc1cc(C2(c3cccc(-c4cncnc4)c3)N=C(N)N(C)C2=O)ccc1OC(F)F (racemic) [FAH-65]
- Aβ1-42 peptide formation, in words [1]: strongly reduces Aβ1-42 production
- preference towards APP in BACE inhibition, in words ([1]; from Aβ1-42, sAPPβ and sAPPα formation): clear preference towards APP in BACE inhibition
- brain levels / crossing the blood brain barrier, in words ([2]; FIG. 4, FIG. 5C (oral and SQ, 10 and 30 mg/kg)): pharmaceutically meaningful concentrations can be achieved in the brain

Structure (SMILES): Cc1cc(C2(c3cnn(C)c3)N=C(N)N(C)C2=O)ccc1OC(F)F (stereo not drawn) [30 HCl]
- sAPP (α/β) ([1]; ↑ increase): ↑≈40%
- sAPPalpha ([1]; ↑ increase): ↑>10%
- sAPPbeta [1]: ↓>20%

Structure (SMILES): Cc1cc(C2(c3cc(F)cc(F)c3)N=C(N)N(C)C2=O)ccc1OC(F)F (stereo not drawn) [FAH-03]
- sAPP (α/β) ([1]; ↑ increase): ↑≈50%
- sAPPα/Aβ ([1]; ↑ increase): ↑>50%
- sAPPalpha ([1]; ↑ increase): ↑>10%
- Abeta 1-42 [1]: ↓>20%
- sAPPbeta [1]: ↓>20%

Structure (SMILES): Cc1cc(C2(c3cccc(F)c3)N=C(N)N(C)C2=O)ccc1OC(F)F (stereo not drawn) [FAH-17]
- sAPP (α/β) ([1]; ↑ increase): ↑>100%
- sAPPα/Aβ ([1]; ↑ increase): ↑>100%
- sAPPalpha ([1]; ↑ increase): ↑>20%
- Abeta 1-42 [1]: ↓>30%
- sAPPbeta [1]: ↓>30%
- Sol (solubility (Sol)): Med
- Cmax brain [2]: ~0.3 µM

Structure (SMILES): Cc1cc(F)cc(C2(c3ccc(OC(F)F)c(C)c3)N=C(N)N(C)C2=O)c1 (stereo not drawn) [FAH-22]
- pIC50 (BACE1; [3]): 6.15
- sAPP (α/β) ([1]; ↑ increase): ↑≈50%
- sAPPα/Aβ ([1]; ↑ increase): ↑>100%
- sAPPalpha ([1]; ↑ increase): ↑>10%
- Abeta 1-42 [1]: ↓>25%
- sAPPbeta [1]: ↓>20%

Structure (SMILES): Cc1cc(C2(c3cccc(Cl)c3)N=C(N)N(C)C2=O)ccc1OC(F)F (stereo not drawn) [FAH-23]
- sAPP (α/β) ([1]; ↑ increase): ↑>50%
- sAPPα/Aβ ([1]; ↑ increase): ↑>100%
- sAPPalpha ([1]; ↑ increase): ↑>20%
- Abeta 1-42 [1]: ↓>25%
- sAPPbeta [1]: ↓>20%

Structure (SMILES): Cc1cc(C2(c3cc(F)cc(Cl)c3)N=C(N)N(C)C2=O)ccc1OC(F)F (stereo not drawn) [FAH-25]
- sAPP (α/β) ([1]; ↑ increase): ↑≈50%
- sAPPα/Aβ ([1]; ↑ increase): ↑>40%
- sAPPalpha ([1]; ↑ increase): ↑>10%
- Abeta 1-42 [1]: ↓>20%
- sAPPbeta [1]: ↓>20%

Structure (SMILES): Cc1cccc(C2(c3ccc(OC(F)F)c(C)c3)N=C(N)N(C)C2=O)c1 (stereo not drawn) [FAH-27]
- sAPP (α/β) ([1]; ↑ increase): ↑>100%
- sAPPα/Aβ ([1]; ↑ increase): ↑>100%
- sAPPalpha ([1]; ↑ increase): ↑>30%
- Abeta 1-42 [1]: ↓>40%
- sAPPbeta [1]: ↓>30%

Structure (SMILES): Cc1cc(C2(c3cccc(C(F)(F)F)c3)N=C(N)N(C)C2=O)ccc1OC(F)F (stereo not drawn) [FAH-28]
- sAPP (α/β) ([1]; ↑ increase): ↑>50%
- sAPPα/Aβ ([1]; ↑ increase): ↑>40%
- sAPPalpha ([1]; ↑ increase): ↑>20%
- Abeta 1-42 [1]: ↓>20%
- sAPPbeta [1]: ↓>20%

Structure (SMILES): Cc1cc(C2(c3cccc(-c4cccnc4)c3)N=C(N)N(C)C2=O)ccc1OC(F)F (stereo not drawn) [FAH-32]
- BACE activity / IC50 in the BACE assay, in words (BACE1): significantly reduced IC50
- Aβ1-42 peptide formation, in words [1]: substantially reduced
- sAPPα formation, in words ([1]; FIG. 1D, compared to FAH17): increased sAPPα formation as compared to FAH17
- sAPPβ formation, in words ([1]; FIG. 1D, compared to FAH17): reduced as compared to FAH17
- sAPP (α/β) ([1]; ↑ increase): ↑>100%
- sAPPα/Aβ ([1]; ↑ increase): ↑>100%
- sAPPalpha ([1]; ↑ increase): ↑>20%
- Abeta 1-42 [1]: ↓>60%
- sAPPbeta [1]: ↓>30%
- Sol (solubility (Sol)): Med
- Cmax brain [2]: <0.02 µM

Structure (SMILES): Cc1cc(C2(c3cncnc3)N=C(N)N(C)C2=O)ccc1OC(F)F (stereo not drawn) [FAH-33]
- sAPP (α/β) ([1]; ↑ increase): ↑≈10%
- sAPPα/Aβ ([1]; ↑ increase): ↑>20%
- sAPPalpha ([1]; ↑ increase): ↑>10%
- Abeta 1-42 [1]: ↓≈10%
- sAPPbeta [1]: Unchanged

Structure (SMILES): Cc1cc(C2(c3cncc(F)c3)N=C(N)N(C)C2=O)ccc1OC(F)F (stereo not drawn) [FAH-37]
- BACE activity / IC50 in the BACE assay, in words (BACE1): less effective in reducing BACE activity in vitro
- pIC50 (BACE1; [3]): 5.71 and 5.55 and 5.33
- pIC50 (BACE1; Tables 1 and 2, read-out: Primary BACE1 IC50): 6.82
- sAPP (α/β) ([1]; ↑ increase): ↑>50%
- sAPPα/Aβ ([1]; ↓ (decrease)): ↓>40%
- sAPPalpha ([1]; ↑ increase): ↑>10%
- Abeta 1-42 [1]: ↓≈20%
- sAPPbeta [1]: ↓>20%
- Sol (solubility (Sol)): Good
- Cmax brain [2]: ~0.11 uM μM

Structure (SMILES): Cc1cc(C2(c3cocn3)N=C(N)N(C)C2=O)ccc1OC(F)F (stereo not drawn) [FAH-38]
- Secondary (1st test) result across all readouts [1, 4]: unchanged

Structure (SMILES): Cc1cc(C2(c3cccc(F)c3)N=C(N)N(Cc3ccccc3)C2=O)ccc1OC(F)F (stereo not drawn) [FAH-42]
- sAPP (α/β) ([1]; ↑ increase): ↑>50%
- sAPPα/Aβ ([1]; ↑ increase): unchanged
- sAPPalpha ([1]; ↑ increase): ↑>10%
- Abeta 1-42 [1]: ↓≈10%
- sAPPbeta [1]: ↓>30%

Structure (SMILES): COCc1cccc(C2(c3ccc(OC(F)F)c(C)c3)N=C(N)N(C)C2=O)c1 (stereo not drawn) [FAH-44]
- pIC50 (BACE1; Table 3, read-out: IC50): ~6.60
- sAPP (α/β) ([1]; ↑ increase): ↑>100%
- sAPPα/Aβ ([1]; ↓ (decrease)): ↓>100%
- sAPPalpha ([1]; ↑ increase): ↑>10%
- Abeta 1-42 [1]: ↓>30%
- sAPPbeta [1]: ↓>30%
- Sol (solubility (Sol)): Excellent
- Cmax brain [2]: ~0.2 µM

Structure (SMILES): Cc1cc(C2(c3ccnc(F)c3)N=C(N)N(C)C2=O)ccc1OC(F)F (stereo not drawn) [FAH-46]
- sAPP (α/β) ([1]; ↑ increase): ↑≈10%
- sAPPα/Aβ ([1]; ↓ (decrease)): ↓>40%
- sAPPalpha ([1]; ↑ increase): ↑>10%
- Abeta 1-42 [1]: ↓>20%
- sAPPbeta [1]: ↓<10%
- Sol (solubility (Sol)): Good
- Cmax brain [2]: ~0.3 µM

Structure (SMILES): Cc1cc(C2(c3ccc(OC(F)F)c(C)c3)N=C(N)N(C)C2=O)ccn1 (stereo not drawn) [FAH-47]
- sAPP (α/β) ([1]; ↑ increase): ↑>50%
- sAPPα/Aβ ([1]; ↓ (decrease)): ↓>20%
- sAPPalpha ([1]; ↑ increase): ↑>10%
- Abeta 1-42 [1]: ↓≈10%
- sAPPbeta [1]: ↓>20%

Structure (SMILES): COc1cc(C2(c3ccc(OC(F)F)c(C)c3)N=C(N)N(C)C2=O)ccn1 (stereo not drawn) [FAH-48]
- sAPP (α/β) ([1]; ↑ increase): ↑≈50%
- sAPPα/Aβ ([1]; ↓ (decrease)): ↓>20%
- sAPPalpha ([1]; ↑ increase): ↑>10%
- Abeta 1-42 [1]: ↓≈10%
- sAPPbeta [1]: ↓>20%

Structure (SMILES): COCc1cc(C2(c3ccc(OC(F)F)c(C)c3)N=C(N)N(C)C2=O)ccn1 (stereo not drawn) [FAH-53]
- sAPP (α/β) ([1]; ↑ increase): ↑≈50%
- sAPPα/Aβ ([1]; ↓ (decrease)): ↓≈20%
- sAPPalpha ([1]; ↑ increase): ↑>10%
- Abeta 1-42 [1]: ↓<10%
- sAPPbeta [1]: ↓<10%

Structure (SMILES): Cc1cc(C2(C3CCCCC3)N=C(N)N(C)C2=O)ccc1OC(F)F (stereo not drawn) [FAH-59]
- Secondary (1st test) toxicity [1, 4]: Toxic

Structure (SMILES): CNCc1cccc(C2(c3ccc(OC(F)F)c(C)c3)N=C(N)N(C)C2=O)c1 (stereo not drawn) [FAH-62]
- sAPP (α/β) ([1]; ↑ increase): ↑≈50%
- sAPPα/Aβ ([1]; ↓ (decrease)): ↓≈30%
- sAPPalpha ([1]; ↑ increase): ↑>10%
- Abeta 1-42 [1]: ↓<10%
- sAPPbeta [1]: ↓>20%
- Sol (solubility (Sol)): Good

Structure (SMILES): Cc1cc(C2(c3cccc(C4CNC4)c3)N=C(N)N(C)C2=O)ccc1OC(F)CF (stereo not drawn) [FAH-64]
- pIC50 (BACE1; [3]): 5.49

Structure (SMILES): Cc1cc(C2(c3cccc(-c4cncc(F)c4)c3)N=C(N)N(C)C2=O)ccc1OC(F)F (stereo not drawn) [FAH-66]
- pIC50 (BACE1; [3]): 6.92

Structure (SMILES): Cc1cc(C2(C3CCN(C)CC3)N=C(N)N(C)C2=O)ccc1OC(F)CF (stereo not drawn) [FAH-67]
- pIC50 (BACE1; [3]): 4.62

Structure (SMILES): CCCC1CC(C2(C3=CC(C)=C(OC(F)F)C(C)C3)N=C(N)N(C)C2=O)CCN1C (stereo not drawn) [FAH-68]
- pIC50 (BACE1; [3]): 4.79
